Reference: patent US5668133A, “Ophthalmic compositions comprising emedastine and methods for their use” (priority 1995, dated 1997)

Legend:
[1] = as compared to systemic activity; cited from earlier work
[2] = tested on: histamine-induced vascular permeability in guinea pig conjunctiva; experiment: histamine-induced vascular permeability in guinea pig conjunctiva, topical ocular pretreatment; type: in vivo, guinea pig (Male Dunkin Hartley)
Procedure: The topical ocular antihistaminic effect of emedastine difumarate was assessed in a model of histamine induced vascular permeability in guinea pig conjunctiva. The potency of emedastine difumarate in this model was then compared with those of reference antihistamines.
Male Dunkin Hartley Viral Antibody Free outbred guinea pigs (Charles River Labs, Portage, Mich.), weighing approximately 250-350 grams (6/group) were injected intravenously (i.v.) via the marginal ear vein with 1.0 mL of Evans Blue dye (1.0 mg/mL). Forty-five (45) minutes post dye injection, 20 μL of test compound or saline vehicle was applied topically to one eye of each experimental animal. […] Responses were quantitated as described by Yanni et al. in Int. Arch. Allergy Immunol., 101:102-106 (1993). Response scores from the treated groups were then compared with scores obtained in the saline-treated group using Dunnett's t test (Dunnett C. W., "A multiple comparison procedure for comparing treatments with a control." J. Am. Stat. Assoc. 50:1096-1121(1955)). Regression analysis was used to determine relative potency (Bliss, C. and E. Gjorgy. In Vitamin Methods, Vol. 2, pp. 445-610, Academic Press, Inc., New York, 1951.).

allergic conjunctivitis = settings: without the addition of a vasoconstrictor; cited from earlier work
[3] = 1 min pretreatment, 0.001 wt %, ketotifen/pheniramine experiment (NaCl 276 ± 10)
[4] = 1 min pretreatment, 0.01 wt %, ketotifen/pheniramine experiment (NaCl 276 ± 10)
[5] = 1 min pretreatment, 0.1 wt %, ketotifen/pheniramine experiment (NaCl 276 ± 10)
[6] = 1 min pretreatment, relative to emedastine difumarate = 1.0, (95% Confidence Limits)
[7] = 30 min pretreatment, relative to emedastine difumarate = 1.0, (95% Confidence limits)

Compound: CC(C)(C)c1ccc(C(O)CCCN2CCC(C(O)(c3ccccc3)c3ccccc3)CC2)cc1 (stereo not shown) [terfenadine]
- local ocular activity [1]: little or no local ocular activity

Compound: CN(C)CCC(c1ccccc1)c1ccccn1 (stereo not shown) [Pheniramine, reference compound]
- Wheal Area × Intensity [2, 3]: 181 ± 16
- Wheal Area × Intensity [2, 4]: 87 ± 40
- Wheal Area × Intensity [2, 5]: 59 ± 23
- Potency [2, 6]: 0.130
- Wheal Area × Intensity (x ± S.D.) ([2]; 30 min pretreatment, 0.003 wt %, levocabastine/pheniramine experiment (NaCl 252 ± 30)): 175 ± 53
- Wheal Area × Intensity (x ± S.D.) ([2]; 30 min pretreatment, 0.03 wt %, levocabastine/pheniramine experiment (NaCl 252 ± 30)): 122 ± 33
- Potency [2, 7]: ~0.0028

Compound: C[C@@H]1CN([C@H]2CC[C@](C#N)(c3ccc(F)cc3)CC2)CC[C@]1(C(=O)O)c1ccccc1 [Levocabastine, reference compound]
- attenuation of histamine-induced vascular permeability response ([2]; 0.05%, topically 1 minute before histamine injection): failed to attenuate significantly
- Wheal Area × Intensity ([2]; 1 min pretreatment, 0.05 wt %, levocabastine experiment (NaCl 336 ± 78)): 231 ± 58
- Wheal Area × Intensity (x ± S.D.) ([2]; 30 min pretreatment, 0.0005 wt %, levocabastine/pheniramine experiment (NaCl 252 ± 30)): 189 ± 66
- Wheal Area × Intensity (x ± S.D.) ([2]; 30 min pretreatment, 0.005 wt %, levocabastine/pheniramine experiment (NaCl 252 ± 30)): 116 ± 67
- Wheal Area × Intensity (x ± S.D.) ([2]; 30 min pretreatment, 0.05 wt %, levocabastine/pheniramine experiment (NaCl 252 ± 30)): 56 ± 41
- Potency [2, 7]: 0.01 (0.006-0.038)
- clinical activity in patients with allergic conjunctivitis (allergic conjunctivitis): exhibits clinical activity

Compound: CN(C)CCC(c1ccc(Cl)cc1)c1ccccn1 (stereo not shown) [Chlorpheniramine, reference compound]
- Wheal Area × Intensity (X ± S.D.) ([2]; 30 min pretreatment, 0.0001 wt %, chlorpheniramine experiment (NaCl 217 ± 35)): 161 ± 57
- Wheal Area × Intensity (X ± S.D.) ([2]; 30 min pretreatment, 0.001 wt %, chlorpheniramine experiment (NaCl 217 ± 35)): 76 ± 22
- Wheal Area × Intensity (x ± S.D.) ([2]; 30 min pretreatment, 0.01 wt %, chlorpheniramine experiment (NaCl 217 ± 35)): 9 ± 12
- Potency [2, 7]: 0.13 (0.056-0.295)

Compound: COc1ccc(CCN2CCC(Nc3nc4ccccc4n3Cc3ccc(F)cc3)CC2)cc1 [astemizole]
- local ocular activity [1]: greatly reduced local ocular activity

Compound: CN1CCC(=C2c3ccccc3CC(=O)c3sccc32)CC1 [Ketotifen, reference compound]
- Wheal Area × Intensity ([2]; 1 min pretreatment, 0.0001 wt %, ketotifen/pheniramine experiment (NaCl 276 ± 10)): 210 ± 11
- Wheal Area × Intensity [2, 3]: 138 ± 21
- Wheal Area × Intensity [2, 4]: 89 ± 22
- Wheal Area × Intensity [2, 5]: 33 ± 22
- Potency [2, 6]: 0.288
- Wheal Area × Intensity (x ± S.D.) ([2]; 30 min pretreatment, 0.0000007 wt %, ketotifen experiment (NaCl 214 ± 41)): 157 ± 66
- Wheal Area × Intensity (x ± S.D.) ([2]; 30 min pretreatment, 0.000007 wt %, ketotifen experiment (NaCl 214 ± 41)): 108 ± 52
- Wheal Area × Intensity (x ± S.D.) ([2]; 30 min pretreatment, 0.00007 wt %, ketotifen experiment (NaCl 214 ± 41)): 61 ± 26
- Potency ([2]; topical, 0.5 h): 3.72 (0.973-11.892)

Compound: CCOC(=O)N1CCC(=C2c3ccc(Cl)cc3CCc3cccnc32)CC1 [loratadine]
- local ocular activity [1]: greatly reduced local ocular activity

Compound: c1ccc(CN(CC2=NCCN2)c2ccccc2)cc1 [Antazoline, reference compound]
- Wheal Area × Intensity ([2]; 1 min pretreatment, 0.0001 wt %, antazoline experiment (NaCl 285 ± 19)): 244 ± 14
- Wheal Area × Intensity ([2]; 1 min pretreatment, 0.001 wt %, antazoline experiment (NaCl 285 ± 19)): 178 ± 42
- Wheal Area × Intensity ([2]; 1 min pretreatment, 0.01 wt %, antazoline experiment (NaCl 285 ± 19)): 115 ± 6
- Potency [2, 6]: 0.060
- Wheal Area × Intensity (x ± S.D.) ([2]; 30 min pretreatment, 0.01 wt %, antazoline experiment (NaCl 287 ± 20)): 205 ± 61
- Wheal Area × Intensity (x ± S.D.) ([2]; 30 min pretreatment, 0.1 wt %, antazoline experiment (NaCl 287 ± 20)): 145 ± 26
- Wheal Area × Intensity (x ± S.D.) ([2]; 30 min pretreatment, 1.0 wt %, antazoline experiment (NaCl 287 ± 20)): 91 ± 27
- Potency [2, 7]: ~0.00017

Compound: CN(C)CCC(c1ccc(Br)cc1)c1ccccn1 (stereo not shown) [Brompheniramine, reference compound]
- Wheal Area × Intensity (X ± S.D.) ([2]; 30 min pretreatment, 0.0001 wt %, brompheniramine experiment (NaCl 219 ± 20)): 167 ± 26
- Wheal Area × Intensity (X ± S.D.) ([2]; 30 min pretreatment, 0.001 wt %, brompheniramine experiment (NaCl 219 ± 20)): 92 ± 44
- Wheal Area × Intensity (x ± S.D.) ([2]; 30 min pretreatment, 0.01 wt %, brompheniramine experiment (NaCl 219 ± 20)): 5 ± 8
- Potency [2, 7]: 0.14 (0.078-0.263)

Compound: CN1CCC[C@@H]1CCO[C@](C)(c1ccccc1)c1ccc(Cl)cc1 [Clemastine, reference compound]
- Wheal Area × Intensity (X ± S.D.) ([2]; 30 min pretreatment, 0.00001 wt %, clemastine experiment (NaCl 350 ± 31)): 283 ± 37
- Wheal Area × Intensity (X ± S.D.) ([2]; 30 min pretreatment, 0.0001 wt %, clemastine experiment (NaCl 350 ± 31)): 131 ± 36
- Wheal Area × Intensity (X ± S.D.) ([2]; 30 min pretreatment, 0.001 wt %, clemastine experiment (NaCl 350 ± 31)): 65 ± 28
- Wheal Area × Intensity (x ± S.D.) ([2]; 30 min pretreatment, 0.01 wt %, clemastine experiment (NaCl 350 ± 31)): 18 ± 8
